The experiment concerns the target T1, TGF-beta receptor type-1 (Homo sapiens, UniProt P36897).
T1 sequence (P36897 whole entry): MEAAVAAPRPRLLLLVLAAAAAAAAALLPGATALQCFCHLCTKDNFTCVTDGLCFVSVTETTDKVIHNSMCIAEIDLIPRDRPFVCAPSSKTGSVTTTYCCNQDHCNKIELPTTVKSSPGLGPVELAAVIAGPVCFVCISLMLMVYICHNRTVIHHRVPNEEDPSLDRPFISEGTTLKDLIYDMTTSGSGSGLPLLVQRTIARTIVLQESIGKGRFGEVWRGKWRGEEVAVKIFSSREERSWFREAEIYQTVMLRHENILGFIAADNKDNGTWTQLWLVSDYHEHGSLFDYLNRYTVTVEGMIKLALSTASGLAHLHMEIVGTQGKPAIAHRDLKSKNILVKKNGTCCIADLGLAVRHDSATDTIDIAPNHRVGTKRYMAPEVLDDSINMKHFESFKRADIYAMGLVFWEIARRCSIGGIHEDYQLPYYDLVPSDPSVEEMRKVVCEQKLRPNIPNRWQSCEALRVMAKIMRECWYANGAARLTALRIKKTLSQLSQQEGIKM
The experiment is described as follows: LanthaScreen™Eu Kinase Binding Assay TGFBR1 (ALK5): Exemplified compounds were screened in 1% DMSO (final concentration) by 3-fold serial dilutions from 10,000 nM to 0.316 nM to produce an IC50 or at single concentrations of 10,000, 1000 and 100 nM according to the following protocol. To low volume, white 384-well plates (Greiner Cat #784207) add 160 nL 100× compound in 100% DMSO, 3.84 uL kinase buffer (50 mM HEPES, pH 7.5, 0.01% BRIJ-35, 10 mM MgCl2, 1 mM EGTA), 8 uL 2× kinase/antibody mixture in kinase buffer (final ALK5 concentration of 5 nM; final Eu-anti-GST antibody concentration of 2 nM), 4 uL 4× Tracer #178 in kinase buffer (final concentration of 5 nM). Gently shake the plates for 30 seconds and incubate at room temperature for 1 hour before reading fluorescence on a plate reader. Percent inhibition was determined compared to DMSO only control (maximal ALK5 tracer binding) and sigmoidal dose response curve fit yielded IC50 values as indicated in Table 2.

The IC50 is the midpoint of a concentration-inhibition curve. As for `CC(C)n1ccc(-c2nc(-c3ccc(C(N)=O)cc3)[nH]c2-c2ccc3ncnn3c2)n1`, the half-maximal inhibitory concentration (IC50) was below 1000 nM.

As for `CC(C)n1ccc(-c2nc(CNc3cc(F)cc(C#N)c3)[nH]c2-c2ccc3nccnc3c2)n1`, the IC50 came out at 138 nM. As for `CC(C)n1ccc(-c2nc(CNc3cc(F)cc(F)c3)[nH]c2-c2ccc3nccnc3c2)n1`, the half-inhibitory concentration (IC50) was 46.4 nM.

The values are drawn from ChEMBL document CHEMBL5728730, “Tri-substituted imidazoles for the inhibition of TGF beta and methods of treatment” (2021).
